“Also recorded” adds a separate entry of the source.
Assays:
FGF14 = molecular target: T1, FGF14 (Homo sapiens, UniProt Q92915); assay: Surface plasmon resonance (SPR), FGF14; assay type: binding
T1 sequence (Q92915 1-252 isoform Q92915-2): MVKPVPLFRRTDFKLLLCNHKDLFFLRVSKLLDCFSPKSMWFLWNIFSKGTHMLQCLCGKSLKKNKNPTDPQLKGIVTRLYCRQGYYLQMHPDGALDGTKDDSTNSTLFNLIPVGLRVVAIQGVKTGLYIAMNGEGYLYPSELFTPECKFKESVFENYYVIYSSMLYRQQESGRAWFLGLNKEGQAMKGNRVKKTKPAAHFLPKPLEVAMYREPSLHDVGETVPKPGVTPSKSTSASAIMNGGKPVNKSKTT
Procedure: (§1) Secondary bioactivity assays: Surface plasmon resonance (SPR). Analogues were then tested using SPR against FGF14 and Nav1.6-C-terminal tail purified proteins, the gold standard for protein binding studies. SPR experiments were used to quantitatively assess the binding affinity of analogues, serving as both a secondary bioactivity assay to determine accurate binding affinities for protein:ligand interactions via KD, Kon and Koff, as well as to assess the compound's ability to disrupt PPI. The reliability of the model, goodness of fit, and reported kinetic and binding constants were validated by varying flow rates, immobilization densities, or different chips. Statistical analysis was conducted by visually inspecting the goodness of fit of the data from the residuals. Additionally, c2 was used as a global measure for residual noise; standard deviation was used to report errors in measurements by repeating the experiment at least three times.
FIGS. 2A and 2B summarize selectivity and orthogonal validation of hits from the screening assay. […] Compounds that modulated complex assembly by ≥25% were excluded from further studies. Referring to FIG. 2B, the remaining 5 selective hits were then quantitatively assessed using SPR. Binding sensorgrams are shown for FGF14 (left) and Nav1.6 (middle) and normalized steady-state saturation plots (right) reveal differences in compound:protein binding affinities. Kinetic analysis of each ligand/analyte interaction was obtained by fitting the response data to the simplest Langmuir 1:1 interaction model (KD=koff/kon).
Referring to FIG. 2B, the remaining 5 selective hits were then quantitatively assessed using SPR. Binding sensorgrams are shown for FGF14 (left) and Nav1.6 (middle) and normalized steady-state saturation plots (right) reveal differences in compound:protein binding affinities. Kinetic analysis of each ligand/analyte interaction was obtained by fitting the response data to the simplest Langmuir 1:1 interaction model (KD=koff/kon).

Nav1.6 = molecular target: T2, Nav1.6 (Homo sapiens, UniProt Q9UQD0); assay: Surface plasmon resonance (SPR), Nav1.6-C-terminal tail; assay type: binding; conditions: Langmuir 1:1 interaction model (KD=koff/kon)
T2 construct: SPR against FGF14 and Nav1.6-C-terminal tail purified proteins
Procedure: as §1
FIGS. 2A and 2B summarize selectivity and orthogonal validation of hits from the screening assay. […] Compounds that modulated complex assembly by ≥25% were excluded from further studies. Referring to FIG. 2B, the remaining 5 selective hits were then quantitatively assessed using SPR. […]
Referring to FIG. 2B, the remaining 5 selective hits were then quantitatively assessed using SPR. […]

FGF14:Nav1.6 complex = molecular target: T3, FGF14:Nav1.6 complex (Homo sapiens, UniProt Q92915+Q9UQD0); assay: Split-luciferase complementation assay (LCA); assay type: cell-based
T3 construct: split firefly luciferase complementation
Text: To identify small molecule probes targeting the FGF14:Nav1.6 PPI interface, the FGF14:Nav1.6 complex was reconstituted using the split-luciferase complementation assay (LCA), and a candidate pool of ~45,000 commercially available compounds was screened. An established screening pipeline was employed to validate hits. […] FIG. 1B summarizes exclusion of compounds based on the CellTiter Blue (CTB) cell viability fluorescence assay.
Primary assays: Split-luciferase complementation assay (LCA). The primary assay to detect FGF14:Nav1.6 complex formation in real-time in living cells is the split-luciferase complementation assay (LCA), which has been designed and successfully implemented specifically to study PPI between the Nav channel and iFGFs. With LCA, in-cell reconstitution of the FGF14:Nav1.6 channel complex was detected upon addition of the D-luciferin substrate, as a robust light signal representing the strength of interaction between the two binding partners. […] The high signal-to-noise ratio, favorable dynamic range, and reversibility of luminescence-based signals make LCA the ideal for HTS of potential regulators, as well as rapid dose-dependency studies (≥8 concentrations) to help guide subsequent in-depth hit validation using more labor-intensive approaches. […]

[1] = test system: medium spiny neurons (MSN), Fgf14^+/+; assay: Patch-clamp electrophysiology in brain slices, MSN of NAc from Fgf14+/+ mice; assay type: cell-based; conditions: 1 micromolar, in words
Procedure: (§2) Patch-clamp electrophysiology in brain slices. This assay provides a critical confirmatory step from the heterologous cell to the native system. With this assay, selected compounds were tested (typically, 3 concentrations) for their modulatory effects on MSN firing and Na+ currents using current clamp and voltage clamp recordings Parameters of interest included action potential threshold, amplitude, rise time, firing frequency, amplitude of Na+ currents and passive properties (i.e., Rseries, Rinput, Vm). Not only is this assay predictive of a compound's in vivo activity, it provides an assessment of potential toxicity and side effects based on secondary measurements (i.e., frequency, amplitude, and kinetics of synaptic potentials, Rinput, Vm). This assay was also used as the first target validation step in native tissue as compounds are concomitantly tested in neurons from Fgf14^−/− mice. Recordings were conducted from at least N=3 animals, n=10-15 recordings; effect is calculated using ANOVA mixed model.
(§3) Target validation of compound PW01028 in NAc slices.

[2] = test system: medium spiny neurons (MSN), Fgf14^−/−; assay: Patch-clamp electrophysiology in brain slices, MSN of NAc from Fgf14-/- mice; assay type: cell-based; conditions: n=7-8/group, p>0.05, in words
Procedure: as §2, §3

[3] = test system: Nav1.6 (cells stably expressing Nav1.6 and FGF14-GFP); assay: Patch-clamp electrophysiology in heterologous cells expressing Nav1.6 and FGF14; assay type: cell-based; conditions: 1 μM
Procedure: (§4) Confirmatory assays: Automated and manual patch-clamp electrophysiology in heterologous cells. Patch-clamp electrophysiology is a rigorous, sophisticated confirmatory and orthogonal assay that serves to assess compound functional activity, mechanism of action, specificity, and selectivity toward various Nav isoforms. It is highly predictive of in vivo efficacy of compounds. In this assay, compounds are tested in cells stably expressing FGF14 and Nav1.6 or other relevant iFGF:Nav channel pairs. Initially screened with an automated planar patch-clamp system, compounds were tested with an 8-point dose-response in 384-well plates with a throughput of >2,000 data sets/week. Compounds were then confirmed with manual patch-clamp at targeted concentrations. A multitude of physiological parameters of Nav channels including Na+ current amplitude, kinetics, voltage-dependence, use-dependency, and time-dependency reflecting the channel closed, opened, and inactivated states were automatically measured using specialized software (i.e., CLAMPEX). Data were typically derived from n=10-20 recordings, N=3 batches of cells. Data were compared using either Student's t-test or two-way ANOVA mixed model.
(§5) Functional activity of Compound PW01028. To study compound PW01028 functional activity against Nav1.6-encoded currents were studied in heterologous cells stably expressing Nav1.6 and/or FGF14-GFP (FIGURE). […]

[4] = molecular target: T4, Nav1.6 (HEK-Nav1.6 expressing GFP control) (Homo sapiens, UniProt Q9UQD0); assay: Patch-clamp electrophysiology in HEK-Nav1.6 cells expressing the GFP control construct; assay type: cell-based; conditions: HEK-Nav1.6 expressing the GFP control construct; in words
T4 construct: patch clamp
Procedure: as §4, §5

T3 sequence (Q9UQD0 1763-1980 limits assumed, one chain of several): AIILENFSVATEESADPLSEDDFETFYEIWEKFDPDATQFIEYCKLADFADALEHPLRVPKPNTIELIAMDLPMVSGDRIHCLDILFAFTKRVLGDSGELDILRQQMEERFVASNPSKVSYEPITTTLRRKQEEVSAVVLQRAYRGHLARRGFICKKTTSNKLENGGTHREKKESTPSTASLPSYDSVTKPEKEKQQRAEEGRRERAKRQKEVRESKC
T2 sequence (Q9UQD0 1767-1912 limits assumed): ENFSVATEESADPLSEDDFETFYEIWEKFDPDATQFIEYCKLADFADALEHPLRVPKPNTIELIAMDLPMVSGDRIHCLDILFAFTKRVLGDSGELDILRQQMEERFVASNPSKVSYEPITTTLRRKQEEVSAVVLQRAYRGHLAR
T4 sequence (Q9UQD0 whole entry): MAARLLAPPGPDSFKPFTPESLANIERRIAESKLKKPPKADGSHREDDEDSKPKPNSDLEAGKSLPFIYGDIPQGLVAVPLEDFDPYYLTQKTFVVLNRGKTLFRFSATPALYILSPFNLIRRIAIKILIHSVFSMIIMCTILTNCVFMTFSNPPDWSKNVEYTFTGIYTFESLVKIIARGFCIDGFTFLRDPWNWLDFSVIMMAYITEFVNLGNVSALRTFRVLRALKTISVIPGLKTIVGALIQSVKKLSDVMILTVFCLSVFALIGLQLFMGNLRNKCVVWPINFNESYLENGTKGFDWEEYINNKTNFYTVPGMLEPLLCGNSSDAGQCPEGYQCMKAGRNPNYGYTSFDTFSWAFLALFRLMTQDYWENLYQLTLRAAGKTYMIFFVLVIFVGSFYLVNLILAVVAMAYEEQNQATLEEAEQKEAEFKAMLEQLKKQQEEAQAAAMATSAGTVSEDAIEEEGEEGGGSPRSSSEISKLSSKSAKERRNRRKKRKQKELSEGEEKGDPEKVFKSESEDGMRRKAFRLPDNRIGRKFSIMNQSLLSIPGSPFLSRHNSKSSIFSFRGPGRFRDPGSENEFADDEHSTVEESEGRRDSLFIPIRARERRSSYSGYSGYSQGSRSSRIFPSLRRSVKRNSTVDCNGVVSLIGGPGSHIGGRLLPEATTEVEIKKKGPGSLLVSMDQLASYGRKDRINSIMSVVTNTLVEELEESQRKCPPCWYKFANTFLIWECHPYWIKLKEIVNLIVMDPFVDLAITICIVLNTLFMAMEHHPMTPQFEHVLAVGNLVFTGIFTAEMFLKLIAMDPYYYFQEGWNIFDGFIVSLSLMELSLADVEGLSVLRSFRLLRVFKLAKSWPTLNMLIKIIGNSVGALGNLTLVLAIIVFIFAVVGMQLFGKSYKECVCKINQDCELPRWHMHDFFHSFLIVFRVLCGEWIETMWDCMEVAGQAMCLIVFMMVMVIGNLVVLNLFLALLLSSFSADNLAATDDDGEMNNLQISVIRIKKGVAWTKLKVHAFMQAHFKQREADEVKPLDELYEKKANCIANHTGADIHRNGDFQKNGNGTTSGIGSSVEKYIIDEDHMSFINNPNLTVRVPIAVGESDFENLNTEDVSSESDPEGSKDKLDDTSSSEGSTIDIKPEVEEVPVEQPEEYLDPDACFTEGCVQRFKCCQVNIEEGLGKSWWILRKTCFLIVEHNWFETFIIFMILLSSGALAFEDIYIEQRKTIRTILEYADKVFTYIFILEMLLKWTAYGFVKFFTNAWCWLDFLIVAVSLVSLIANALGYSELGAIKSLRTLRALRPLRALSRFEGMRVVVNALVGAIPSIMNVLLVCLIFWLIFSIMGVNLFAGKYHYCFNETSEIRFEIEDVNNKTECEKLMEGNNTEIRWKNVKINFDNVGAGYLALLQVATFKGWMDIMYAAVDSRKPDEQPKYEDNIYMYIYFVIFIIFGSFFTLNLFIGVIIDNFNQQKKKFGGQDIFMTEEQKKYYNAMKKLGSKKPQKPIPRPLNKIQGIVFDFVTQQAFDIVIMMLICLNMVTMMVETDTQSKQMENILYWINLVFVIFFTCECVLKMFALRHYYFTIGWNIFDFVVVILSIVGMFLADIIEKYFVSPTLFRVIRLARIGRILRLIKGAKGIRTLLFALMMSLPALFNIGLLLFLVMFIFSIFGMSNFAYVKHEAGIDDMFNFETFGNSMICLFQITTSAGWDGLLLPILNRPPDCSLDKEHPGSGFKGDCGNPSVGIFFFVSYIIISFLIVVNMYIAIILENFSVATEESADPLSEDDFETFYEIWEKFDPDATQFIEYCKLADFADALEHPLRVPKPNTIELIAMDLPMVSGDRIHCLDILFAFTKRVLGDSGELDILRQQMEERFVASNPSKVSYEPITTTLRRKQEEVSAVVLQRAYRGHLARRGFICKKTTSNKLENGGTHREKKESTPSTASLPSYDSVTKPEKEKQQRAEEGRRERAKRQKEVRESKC

Row | Structure (SMILES) | Kd (FGF14; Langmuir 1:1 interaction model (KD=koff/kon)) [nM] | Kd (Nav1.6) [nM] | IC50 (FGF14:Nav1.6 complex; LCA, read-out: IC50 for modulation of FGF14:Nav1.6 complex formation) [nM] | potency in the LCA dose-response studies (FGF14:Nav1.6 complex; dose-response, in words) | binding affinity to FGF14 (FGF14; in words) | ligand binding to the FGF14 R117 residue (FGF14; in words) | effect on Nav channel closure / Na+ currents in MSN ([1]; Fgf14+/+ (wild-type) mice) | effect on MSN firing ([1]; Fgf14+/+ mice, n=19-20/group, p<0.0001) | effect on MSN firing / Na+ currents [2] | depolarizing shift in the voltage-dependence of steady-state inactivation of the transient Na+ current ([3]; FGF14-mediated regulatory effects on Nav1.6) | effect on voltage-dependence (V1/2) of steady-state inactivation ([3]; in words, n=6-10 cells/group) | functional effects [4]
1 | Cc1cccc(NC(=O)Cn2cc(CO)c3ccccc32)c1 [Compound 7605086, 2-(3-(Hydroxymethyl)-1H-indol-1-yl)-N-(m-tolyl)acetamide] | 2900 | 13600 | – | – | – | – | – | – | – | – | – | –
2 | CCOC(=O)c1cccc(NC(=O)Cn2cc(CO)c3ccccc32)c1 [PW01028, Ethyl 3-(2-(3-(hydroxymethyl)-1H-indol-1-yl)acetamido)benzoate] | – | – | ~250 | nanomolar potency | nanomolar binding affinity | evidence for ligand binding to the FGF14^R117 residue | potentiated MSN firing and transient Na^+ currents (INaP); also recorded: hampered Nav channel closure, prolonged Na+ currents | potentiated MSN firing; also recorded: increases firing in MSN; also recorded: potentiated intrinsic firing | inactive in MSN from Fgf14^−/− mice; also recorded: Lack of effect; also recorded: absent in Fgf14^−/− mice | +15 mV | markedly shifted V1/2 and steady-state inactivation to a more depolarized potential; also recorded: shifts voltage-dependence of steady-state inactivation of Na+ currents | no functional effects

Reference: patent US20260297027A1, “Non-Peptide Small Molecule FGF14:Nav1.6 Channel Complex Protein-Protein Interaction Modulators” (The Board of Regents of The University of Texas System, priority 2023, published 2026)
